Key:
[1] = test system: Candida albicans (ATCC 90028); assay: Filter paper disk test on agar plates containing C. albicans; format: cell-based; conditions: 5 μL or 10 μL on paper disk, 37° C., 24-72 hours
Procedure: (§1) Candida albicans (ATCC 90028) and Aspergillis fumigatus (ATCC 16424) were tested in vitro for the effect of antifungal compositions according to embodiments of the invention. Fungal cells were obtained from the American Type Culture Collection.
(§2) C. Albicans yeast cells were grown in YM broth (Difco™ 0711-01) containing the following ingredients: 1% peptone, 1% yeast extract and 2% glucose. The cells were grown at 37° C., harvested by centrifugation, resuspended in the same medium and stored frozen at −80° C. The cells were used at a concentration of about 1×10^6 cells/mL. A. fumigatus was cultured on solid MPG containing 20 g/L malt extract (Difco™ 21860); 1 g/L Difco™ 211677); 20 g/L sucrose and 15 g/L Bacto-agar (Difco™ 140-07-04) in water, at 37° C. for 7 to 10 days. Conidia were harvested by flooding the medium with sterile water, filtered through glass wool to exclude hyphal fragments, washed by centrifugation (5000 xg for 10 minutes at 4° C., resuspended at about 1×10^6 conidia/mL in water and stored at −80° C. until used.
(§3) For testing, A. fumigatus conidia and C. albicans cells were thawed. […]
(§4) Samples (5 μL, 10 μL or 20 μL as indicated in the Figures) of liquid drug formulation were placed on sterile filter paper disks and the disks allowed to air dry 15-30 minutes at room temperature in a Class II biosafety hood. […] A portion of each sample was analyzed for potency. […]

[2] = test system: Aspergillis fumigatus (ATCC 16424); assay: Filter paper disk test on agar plates containing A. fumigatus (zone of killing); format: cell-based; conditions: 5 μL or 10 μL on paper disk, 37° C., 24-72 hours
Procedure: as §1, §2, §3, §4

## Clc1ccc(COC(Cn2ccnc2)c2ccc(Cl)cc2Cl)c(Cl)c1 (centres unmarked) [Miconazole, miconazole]
[1]
  killing of C. albicans (visual observation of plates): highly active
[2]
  killing of A. fumigatus (visual observation of plates): highly active
